Results as given in patent US20160304957A1, “TREATMENT AND MODULATION OF GENE EXPRESSION AND SKIN AGING” (DSM NUTRITIONAL PRODUCTS LTD., priority 2006, published 2016).

Key:
[1] = tested on: TIMP-1; test: QRT-PCR gene expression in HaCaT cells with or without UVA; format: cell-based, human
Experimental: HaCaT cells were obtained from Prof. Fusenig, German Cancer Research Centre, Heidelberg. […] The accuracy of cell counting was approximately 99%.
Vitamin E (RRR-α-tocopherol; DSM Nutritional Products, Kaiseraugst, Switzerland) stock solutions and vitamin E-containing media were prepared as described for β-carotene-containing solutions, except that vitamin E was dissolved in ethanol. In experiments addressing the vitamin E effect, vitamin E was used in a final concentration of 50 μM. Again, the solvent concentration was kept constant at 0.03% ethanol for all conditions.
On day 3 of the experiment, cells were washed six times with Ca/Mg-free PBS containing 2% BSA, and then irradiated with light with a Hönle sun lamp Sol 500 (Dr. Hönle, Plannegg, Germany) at a dose of 270 kJ/m^2 in Ca/Mg-free PBS (2 hour exposure time at […]). The experimental schedule was chosen because the cells had optimal UVA sensitivity after 48 hours in culture. […] Confluent cultures were much less sensitive to irradiation. […]
cDNA corresponding to 10 ng total RNA was used as template to quantify the relative RNA expression of the genes of interest by TaqMan® real time PCR.
The PCR analyses were carried out in triplicate and in a multiplex setup, using 18S rRNA as a calibrator gene. […] For quantification of the genes of interest, the primer concentrations were optimized for sensitivity of template detection. […] Regulation of gene expression was calculated as described in user bulletin #2 provided by the manufacturer. A threshold cycle (“CT”) is the first PCR cycle in which an amplification signal is detected. […] The δCT value describes the level of gene expression as the average PCR cycle, in which the gene of interest was detected first (CT value), subtracted by the CT value of the calibrator gene 18S rRNA (CTgene of interest−CTcalibrating gene), 18S rRNA served as a measure for the amount of template in the reaction. Routinely, 18S rRNA was detected between PCR cycle 12 and 13 (SE=standard error) A low δCT corresponds to a high mRNA level.

[2] = tested on: GADD153; test: QRT-PCR confirmation of gene regulation in HaCaT cells; format: cell-based, human; settings: 5 hours after UVA
Experimental: (§1) FIGS. 9A-9C show β-carotene-induced inhibition of integrinα6 transcription in irradiated and unirradiated HaCaT cells (FIG. 9A) and enhancement of UVA-induced GADD34 (FIG. 9B) and GADD153 transcription (FIG. 9C). Cells were supplemented with β-carotene for 2 days prior to UVA irradiation (270 kJ/m^2) either in normal PBS or D2O-PBS. Gene expression 5 hours after irradiation was determined by quantitative real time polymerase chain reaction. (“QRT-PCR”). Values are geometric mean±standard error of three experiments.
(§2) Key gene regulation was confirmed in three independent cell irradiation experiments using TaqMan® QRT-PCR as described. In these experiments, cells were pretreated with 0.5, 1.5, or 3 μM β-carotene, to analyze for dose-dependent β-carotene effects. In addition, cells were irradiated either in D2O-containing PBS or in H2O-containing PBS, to analyze for the ^1O2 inducibility of genes.

[3] = tested on: GADD34; test: as above; format: cell-based, human; settings: 5 hours after UVA
Experimental: as §1, §2

[4] = tested on: integrinα6; test: as above; format: cell-based, human; settings: β-carotene, unirradiated cells
Experimental: as §1, §2

[5] = tested on: MMP-1; test: ELISA of MMP-1 release into cell culture supernatant of HaCaT cells; format: cell-based, human
Experimental: HaCaT cells were supplemented with 0.5, 1.5, or 3 μM β-carotene for 2 days prior to UVA (270 kJ/m^2) irradiation. MMP-1 and TIMP-1 secretion 24 hours after irradiation was analyzed by ELISA. Each condition was represented by three replicates in the experiment. Values are means±standard error.
Release of MMP-1, and TIMP-1 into cell culture supernatant was determined by ELISA at 24 hours after irradiation. MMP-1 and TIMP-1 release was measured using MMP-1 and TIMP ELISA from CALBIOCHEM (San Diego, Calif., USA). The ELISAs were performed according to the manufacturer's instructions.

[6] = tested on: retinoic acid response elements (RAREs); test: RA-dependent reporter gene assay pGL3 (RARE)5 tk luc in HaCaT cells; format: cell-based, human
Experimental: HaCaT cells were transiently transfected with the reporter construct pGL3 (RARE)5 tk luc, containing five DR5-type retinoic acid response elements (“RAREs”). Luciferase activity was determined after 40 hours treatment with β-carotene. Values are means±standard error from two experiments with four replicates each.
HaCaT cells were seeded at a density of 3×10^6 cells/well in 6 well plates (BD Biosciences, Basel, Switzerland) in FAD medium containing 2% NuSerum. The cells were transfected the next day using 1 μg reporter plasmid (pGL3 (RARE)5 tk luc) and 5 μl Lipofectin (1 μg/μL; Invitrogen, Basel, Switzerland) per well. The RARE is a DR5 element identical to the wild type element of the RARβ2 promoter. The spacing between the DR5 sites is 25 nucleotides. The transfections were performed for 7.5 hours in serum-free FAD medium according to the manufacturer's protocol. […] Transactivation of the reporter gene was determined after 40 hours of β-carotene treatment.
To generate the RA standard curve, 9-cis RA and all-trans RA were used together at concentrations ranging from 10^−10 to 10^−8 M each. […] Relative luciferase units (RLU) were quantified in a luminoskan reader (Thermo Labsystems, Vantaa, Finland), and corrected by protein concentrations as determined with the BCA assay (Pierce, Rockford, USA).

[7] = tested on: sunburn cells; settings: supplementation, humans; cited from earlier work

With `CC1=C(/C=C/C(C)=C/C=C/C(C)=C/C=C/C=C(C)/C=C/C=C(C)/C=C/C2=C(C)CCCC2(C)C)C(C)(C)CCC1` [β-carotene, All-E-β-carotene] the TIMP-1 expression ([1]; UVA/D2O experiments) was “not significantly influenced”, the “TIMP-1 RNA level” value ([1]; β-carotene, with or without UVA) was “not significantly influenced” and the “UVA-induced GADD153 transcription” value [2] was “enhancement”. The “UVA-induced GADD34 transcription” value [3] was “enhancement”, the integrinα6 transcription [4] was “downregulation” and the “UVA-induced MMP-1 production, protein level” value ([5]; 24 hours after UVA) was “Downregulation”. For the same compound, the “basal MMP-1 protein expression” value ([5]; unirradiated cells) was “tended to reduce”, the “activation of the luciferase reporter” value ([6]; 1 or 3 μM β-carotene, 40 hours) was “comparable to what was achieved after treating the cells with a combination of all-trans RA and 9-cis RA at 10 nM each” and the “RARE-dependent gene activation after UVA irradiation, relative to unirradiated” value ([6]; cells irradiated with UVA prior to measurement) was “about 70%”. The “number of sunburn cells” value [7] was “did not alter the number of sunburn cells”.
